According to patent publication EP3693362B1, “PARASITIC PLANT GERMINATION REGULATOR” (National University Corporation Tokai National Higher …, priority 2017, dated 2019):

Key:
HTL11 = molecular target: T1, HTL11 (Striga hermonthica, UniProt A0A0M4AS18); assay: Affinity for strigolactone receptor, YLG probe competition (fluorescence); assay type: binding; conditions: competition with YLG, test range 0.01 to 10 µM, pH 7.0, read-out: IC50 values of test compounds
T1 sequence (A0A0M4AS18 1-268): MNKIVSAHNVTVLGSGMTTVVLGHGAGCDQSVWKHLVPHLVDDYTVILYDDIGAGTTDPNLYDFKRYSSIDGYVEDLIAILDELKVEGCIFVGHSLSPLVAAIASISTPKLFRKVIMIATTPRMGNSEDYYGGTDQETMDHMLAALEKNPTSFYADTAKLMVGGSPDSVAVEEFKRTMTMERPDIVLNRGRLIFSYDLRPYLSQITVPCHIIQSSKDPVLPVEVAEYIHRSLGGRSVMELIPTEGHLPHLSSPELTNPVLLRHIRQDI
Protocol: (§1) PTL 1 reports that the affinity of a test compound for the strigolactone receptor can be evaluated by reacting strigolactone with a probe for evaluation of affinity for a strigolactone receptor (e.g., YLG) in the presence of the test compound, and measuring the fluorescence emitted from the decomposition product of YLG. Therefore, the compounds synthesized in Example 1 were used as the test compounds, and the affinity for the strigolactone receptor was evaluated by a similar method to the above. The details are as follows.
(§2) An Arabidopsis thaliana strigolactone receptor (AtD14) was produced in accordance with a usual method. More specifically, cDNA of the receptor was obtained by RT-PCR, and expression and purification were carried out in E. coli. Additionally, Striga strigolactone receptors were produced by the method disclosed in PTL 1 (ShHTL1: amino acid SEQ ID NO: 1, ShHTL2: amino acid SEQ ID NO: 2, ShHTL3: amino acid SEQ ID NO: 3, ShHTL4: amino acid SEQ ID NO: 4, ShHTL5: amino acid SEQ ID NO: 5, ShHTLS: amino acid SEQ ID NO: 6, ShHTL7: amino acid SEQ ID NO: 7, ShHTLS: amino acid SEQ ID NO: 8, ShHTL9: amino acid SEQ ID NO: 9, ShHTL10: amino acid SEQ ID NO: 10, and ShHTL11: amino acid SEQ ID NO: 11.)
(§3) One hundred microliters of a reaction solution containing each of the obtained strigolactone receptors ([…]), YLG (final concentration: […]), and each of the test compounds (final concentration: 0.01 to 10 µM) or the control compound (5-deoxystrigol, final concentration: 0.01 to 10 µM) as a competitive compound (100 mM HEPES, 150 mM NaCl, pH: 7.0, 0.1% DMSO) was prepared and reacted in a 96 black-well plate (Greiner). Sixty after the initiation of the reaction, fluorescence was detected at an excitation wavelength of 480 nm and a detection wavelength of 520 nm using a fluorescence detector (SpectraMax i3, manufactured by Molecular Devices), and the fluorescence intensity was measured. Based on the measurement results of fluorescence intensity, a Lineweaver-Burk plot was created to calculate the Km values, and the IC50 values of each of the test compounds and the control compound, which are competitive compounds.
(§4) In Table 7, HTL1 to HTL11 refer to strigolactone receptors (SEQ ID NOs: 1 to 11), and AtD14 refer to the Arabidopsis thaliana strigolactone receptor.

HTL7 = molecular target: T2, HTL7 (Striga hermonthica, UniProt A0A0M3PNA2); assay: as above; assay type: binding; conditions: competition with YLG, test range 0.01 to 10 µM, pH 7.0, read-out: IC50 values of test compounds
T2 sequence (A0A0M3PNA2 1-271): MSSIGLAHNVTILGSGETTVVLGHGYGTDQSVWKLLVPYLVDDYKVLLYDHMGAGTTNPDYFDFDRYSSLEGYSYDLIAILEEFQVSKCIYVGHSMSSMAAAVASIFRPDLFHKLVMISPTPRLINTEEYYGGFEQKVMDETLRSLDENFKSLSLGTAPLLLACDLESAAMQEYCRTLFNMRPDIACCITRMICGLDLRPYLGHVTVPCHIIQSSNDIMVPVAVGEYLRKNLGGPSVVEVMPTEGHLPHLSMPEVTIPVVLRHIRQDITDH
Protocol: as §1, §2, §3, §4

Orobanche minor = assay: Parasitic plant germination induction test (Orobanche minor seeds); assay type: in vivo; conditions: in the dark for 2 days
Protocol: (§5) A parasitic plant germination induction test was conducted using the compounds synthesized in Example 1 as test compounds. The seeds of a parasitic plant (Striga hermonthica, Orobanche minor, or Phelipanche aegyptiaca) were suspended in sterilized ultrapure water, and this was dispensed in an amount of 100 µL each (containing about 20 seeds) into a 96-well plate. The test compounds or control compounds (Comparison Compound 1 or synthetic Strigolactone (GR^24: Comparison Compound 2)) dissolved in DMSO were individually added thereto to a final concentration of these compounds of 10 nM to 1 fM (1 × 10^-8 to 1 × 10^-15 M), and allowed to stand in the dark for 2 days. The presence or absence of germination was observed using a microscope, and the germination rate (i.e., number of germinated seeds/total number of seeds) was measured. The higher the germination rate in the parasitic plant germination induction test, or the higher the germination rate at lower concentration, the higher the Striga germination inducing activity.
(§6) In Tables 1 to 6, the concentrations (10 nM, 1 nM, and 0.1 nM) represent compound concentrations. In Tables 1-6, the evaluation criteria for the compounds are as follows: • ++: germination rate of 20% or more • +: germination rate of 5% or more and less than 20% • -: germination rate of less than 5% Table 1

Phelipanche aegyptiaca = assay: Parasitic plant germination induction test (Phelipanche aegyptiaca seeds); assay type: in vivo; conditions: in the dark for 2 days
Protocol: as §5, §6

Row | Compound | IC50 (HTL11) | IC50 (HTL7) | Germination rate 0.1 nM (Orobanche minor; compound concentration 0.1 nM) | Germination rate 1 nM (Orobanche minor; compound concentration 1 nM) | Germination rate 10 nM (Orobanche minor; compound concentration 10 nM) | Germination rate 1 nM (Phelipanche aegyptiaca; compound concentration 1 nM) | Germination rate 10 nM (Phelipanche aegyptiaca; compound concentration 10 nM)
1 | CC1=CC(OC=C2C(=O)OC3C4=C(CCCC4(C)C)CC23)OC1=O (stereo not shown) [5-Ddeoxystriqol, 5-deoxystrigol, reference compound] | 1600 nM | 120 nM |  |  |  |  | 
2 | CC1=CC(OC(=O)NCc2ccccc2)OC1=O (stereo not shown) [Comparison Compound 1, reference compound] | 660 nM | > 10000 nM |  |  |  |  | 
3 | CCCCOc1ccc(S(=O)(=O)N2CCN(C(=O)OC3C=C(C)C(=O)O3)CC2)cc1 (stereo not shown) [Compound 1] | 1800 nM | 310 nM | - (germination rate of less than 5%) | ++ (germination rate of 20% or more) | ++ (germination rate of 20% or more) | - (germination rate of less than 5%) | + (germination rate of 5% or more and less than 20%)
4 | CCCCOc1ccc(S(=O)(=O)N2CCN(C(=O)OC3C=CC(=O)O3)CC2)cc1 (stereo not shown) [Compound 13] | > 10000 nM | 750 nM |  |  |  |  | 
